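The compound was tested at five concentrations on cells cultured in 96-well plates, with a 48-hour exposure period. GI50 = concentration required for 50% inhibition of growth. TGI marks complete inhibition of growth.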
How the values were obtained:
Assay in all cases: growth of human tumour cells (NCI), 48 h
[1] = tested on: 786-0 renal
[2] = tested on: A498 renal
[3] = tested on: A549 NSCLC
[4] = tested on: ACHN renal
[5] = tested on: BT-549 breast
[6] = tested on: CAKI-1 renal
[7] = tested on: CCRF-CEM leukemia
[8] = tested on: COLO 205 colon
[9] = tested on: DU-145 prostate
[10] = tested on: EKVX NSCLC
[11] = tested on: HCC-2998 colon
[12] = tested on: HCT-116 colon
[13] = tested on: HCT-15 colon
[14] = tested on: HL-60(TB) leukemia
[15] = tested on: HOP-62 NSCLC
[16] = tested on: HOP-92 NSCLC
[17] = tested on: HS 578T breast
[18] = tested on: HT29 colon
[19] = tested on: IGROV1 ovarian
[20] = tested on: K-562 leukemia
[21] = tested on: KM12 colon
[22] = tested on: LOX IMVI melanoma
[23] = tested on: M14 melanoma
[24] = tested on: MALME-3M melanoma
[25] = tested on: MCF7 breast
[26] = tested on: MDA-MB-231 breast
[27] = tested on: MDA-MB-435
[28] = tested on: MOLT-4 leukemia
[29] = tested on: NCI-H226 lung
[30] = tested on: NCI-H23 lung
[31] = tested on: NCI-H460 lung
[32] = tested on: NCI-H522 lung
[33] = tested on: NCI/ADR-RES ovarian
[34] = tested on: OVCAR-3 ovarian
[35] = tested on: OVCAR-4 ovarian
[36] = tested on: OVCAR-5 ovarian
[37] = tested on: OVCAR-8 ovarian
[38] = tested on: PC-3 prostate
[39] = tested on: RPMI-8226 leukemia
[40] = tested on: RXF 393 renal
[41] = tested on: SF-268 CNS
[42] = tested on: SF-295 CNS
[43] = tested on: SF-539 CNS
[44] = tested on: SK-MEL-2 melanoma
[45] = tested on: SK-MEL-28 melanoma
[46] = tested on: SK-MEL-5 melanoma
[47] = tested on: SK-OV-3 ovarian
[48] = tested on: SN12C renal
[49] = tested on: SNB-19 CNS
[50] = tested on: SNB-75 CNS
[51] = tested on: SR leukemia
[52] = tested on: SW-620 colon
[53] = tested on: T-47D breast
[54] = tested on: TK-10 renal
[55] = tested on: U251 CNS
[56] = tested on: UACC-257 melanoma
[57] = tested on: UO-31 renal
[58] = tested on: UACC-62 melanoma

`O=C(/C=C/c1c(-c2ccccc2)[nH]c2ccccc12)S(=O)(=O)c1ccccc1` was tested, and the GI50 [1] was 52.6 µM, the TGI [1] was > 100 µM and the GI50 [2] was 2.2 µM. The TGI [2] was 87.8 µM, the GI50 [3] was 24.9 µM and the TGI [3] was > 100 µM. The GI50 [4] was 39.8 µM, the TGI [4] was > 100 µM and the GI50 [5] was 5.33 µM. For the same compound, the TGI [5] was > 100 µM, the GI50 [6] was 6.42 µM and the TGI [6] was > 100 µM. The GI50 [7] was 5.41 µM, the TGI [7] was > 100 µM and the GI50 [8] was 6 µM. For the same compound, the TGI [8] was > 100 µM, the GI50 [9] was 7.54 µM and the TGI [9] was > 100 µM. For the same compound, the GI50 [10] was 4.37 µM, the TGI [10] was > 100 µM and the GI50 [11] was 17.5 µM. The TGI [11] was > 100 µM, the GI50 [12] was 4.81 µM and the TGI [12] was > 100 µM. The GI50 [13] was 6.42 µM, the TGI [13] was > 100 µM and the GI50 [14] was 5.6 µM. The TGI [14] was 98.7 µM, the GI50 [15] was 29.9 µM and the TGI [15] was > 100 µM. The GI50 [16] was 16.3 µM, the TGI [16] was > 100 µM and the GI50 [17] was 10.1 µM. For the same compound, the TGI [17] was > 100 µM, the GI50 [18] was 3.76 µM and the TGI [18] was > 100 µM. The GI50 [19] was 24.3 µM, the TGI [19] was > 100 µM and the GI50 [20] was 3.7 µM. For the same compound, the TGI [20] was > 100 µM, the GI50 [21] was 2.03 µM and the TGI [21] was > 100 µM. For the same compound, the GI50 [22] was > 100 µM, the TGI [22] was > 100 µM and the GI50 [23] was 5.86 µM. The TGI [23] was > 100 µM, the GI50 [24] was 8.11 µM and the TGI [24] was > 100 µM. The GI50 [25] was 3.09 µM, the TGI [25] was > 100 µM and the GI50 [26] was 16.6 µM. For the same compound, the TGI [26] was > 100 µM, the GI50 [27] was 1.73 µM and the TGI [27] was 5.07 µM. The GI50 [28] was 4.78 µM, the TGI [28] was > 100 µM and the GI50 [29] was > 100 µM. The TGI [29] was > 100 µM, the GI50 [30] was 13.6 µM and the TGI [30] was > 100 µM. For the same compound, the GI50 [31] was 3.7 µM, the TGI [31] was > 100 µM and the GI50 [32] was 6.11 µM. The TGI [32] was > 100 µM, the GI50 [33] was 3.19 µM and the TGI [33] was 53.6 µM. The GI50 [34] was 4.23 µM, the TGI [34] was > 100 µM and the GI50 [35] was 4.48 µM. For the same compound, the TGI [35] was > 100 µM, the GI50 [36] was > 100 µM and the TGI [36] was > 100 µM. For the same compound, the GI50 [37] was 53.6 µM, the TGI [37] was > 100 µM and the GI50 [38] was 8.15 µM. For the same compound, the TGI [38] was > 100 µM, the GI50 [39] was 13.3 µM and the TGI [39] was > 100 µM. The GI50 [40] was 9.34 µM, the TGI [40] was 67.1 µM and the GI50 [41] was 6.24 µM. The TGI [41] was > 100 µM, the GI50 [42] was 0.818 µM and the TGI [42] was > 100 µM. For the same compound, the GI50 [43] was 17.5 µM, the TGI [43] was > 100 µM and the GI50 [44] was 78.6 µM. For the same compound, the TGI [44] was > 100 µM, the GI50 [45] was 27.1 µM and the TGI [45] was > 100 µM. For the same compound, the GI50 [46] was 4.38 µM, the TGI [46] was > 100 µM and the GI50 [47] was 23.5 µM. For the same compound, the TGI [47] was > 100 µM, the GI50 [48] was > 100 µM and the TGI [48] was > 100 µM. For the same compound, the GI50 [49] was 35.7 µM, the TGI [49] was > 100 µM and the GI50 [50] was 3.96 µM. For the same compound, the TGI [50] was > 100 µM, the GI50 [51] was 2.42 µM and the TGI [51] was 6.72 µM. The GI50 [52] was 5.1 µM, the TGI [52] was > 100 µM and the GI50 [53] was 2.5 µM. For the same compound, the TGI [53] was > 100 µM, the GI50 [54] was 74 µM and the TGI [54] was > 100 µM. The GI50 [55] was 40.3 µM, the TGI [55] was > 100 µM and the GI50 [56] was > 100 µM. The TGI [56] was > 100 µM, the GI50 [57] was > 100 µM and the TGI [57] was > 100 µM.
Work on `CO[C@H]1/C=C/[C@@](C)(O)/C=C/C(=O)O[C@H](C)[C@@H](C)CC/C=C/1C` yielded a GI50 [1] of 16.8 µM, a TGI [1] of 34.3 µM and a GI50 [2] of 12 µM. For the same compound, the TGI [2] was 32 µM, the GI50 [3] was 23 µM and the TGI [3] was > 100 µM. It also gave a GI50 [4] of 18.7 µM, a TGI [4] of 55.9 µM and a GI50 [5] of 19.8 µM. It also gave a TGI [5] of 63.6 µM, a GI50 [6] of 21.1 µM and a TGI [6] of 69.7 µM. For the same compound, the GI50 [7] was 10.1 µM, the TGI [7] was > 100 µM and the GI50 [8] was 20.6 µM. The TGI [8] was 47.8 µM, the GI50 [9] was 22.4 µM and the TGI [9] was 71.8 µM. For the same compound, the GI50 [10] was 15.7 µM, the TGI [10] was 76.8 µM and the GI50 [11] was 15.6 µM. For the same compound, the TGI [11] was 30.7 µM, the GI50 [12] was 12.9 µM and the TGI [12] was 26.2 µM. The GI50 [13] was 7.35 µM, the TGI [13] was 22.5 µM and the GI50 [14] was 22.7 µM. The TGI [14] was 54.5 µM, the GI50 [15] was 16.3 µM and the TGI [15] was 59.2 µM. For the same compound, the GI50 [16] was 7.62 µM, the TGI [16] was 26.1 µM and the GI50 [17] was 23.9 µM. For the same compound, the TGI [17] was > 100 µM, the GI50 [18] was 19.4 µM and the TGI [18] was 48.7 µM. For the same compound, the GI50 [19] was 17.2 µM, the TGI [19] was 62.3 µM and the GI50 [20] was 15.2 µM. For the same compound, the TGI [20] was > 100 µM, the GI50 [21] was 15.8 µM and the TGI [21] was 41.2 µM. It also gave a GI50 [22] of 11.3 µM, a TGI [22] of 26 µM and a GI50 [23] of 15.7 µM. For the same compound, the TGI [23] was 43.3 µM, the GI50 [24] was 13.1 µM and the TGI [24] was 37.3 µM. The GI50 [25] was 16.5 µM, the TGI [25] was 56 µM and the GI50 [26] was 14.5 µM. The TGI [26] was 45.1 µM, the GI50 [27] was 23.1 µM and the TGI [27] was 83.1 µM. The GI50 [28] was 21.2 µM, the TGI [28] was 98.6 µM and the GI50 [30] was 14.8 µM. It also gave a TGI [30] of 32.4 µM, a GI50 [31] of 17.4 µM and a TGI [31] of 48.6 µM. For the same compound, the GI50 [32] was 15.2 µM, the TGI [32] was 36.4 µM and the GI50 [33] was 15 µM. The TGI [33] was 40.5 µM, the GI50 [34] was 11.3 µM and the TGI [34] was 29.4 µM. For the same compound, the GI50 [35] was 14.9 µM, the TGI [35] was 76.3 µM and the GI50 [36] was 17.7 µM. For the same compound, the TGI [36] was 39.2 µM, the GI50 [37] was 26.9 µM and the TGI [37] was > 100 µM. For the same compound, the GI50 [38] was 18.2 µM, the TGI [38] was 53.7 µM and the GI50 [39] was 15.5 µM. It also gave a TGI [39] of 97.3 µM, a GI50 [40] of 11 µM and a TGI [40] of 24.5 µM. For the same compound, the GI50 [41] was 19.7 µM, the TGI [41] was > 100 µM and the GI50 [42] was 16.5 µM. For the same compound, the TGI [42] was 39.8 µM, the GI50 [43] was 15.2 µM and the TGI [43] was 31.3 µM. It also gave a GI50 [44] of 23.6 µM, a TGI [44] of 63.5 µM and a GI50 [45] of 16.9 µM. It also gave a TGI [45] of 42.6 µM, a GI50 [46] of 14 µM and a TGI [46] of 28.4 µM. The GI50 [48] was 17.6 µM, the TGI [48] was 59.2 µM and the GI50 [49] was 21.9 µM. For the same compound, the TGI [49] was 81.8 µM, the GI50 [50] was 17.5 µM and the TGI [50] was 40.4 µM. The GI50 [51] was 15 µM, the TGI [51] was > 100 µM and the GI50 [52] was 15.1 µM. For the same compound, the TGI [52] was 35.7 µM, the GI50 [53] was 14.1 µM and the TGI [53] was > 100 µM. For the same compound, the GI50 [54] was 19.7 µM, the TGI [54] was 88.4 µM and the GI50 [55] was 14.2 µM. It also gave a TGI [55] of 40.6 µM, a GI50 [56] of 26.7 µM and a TGI [56] of 87.3 µM. The GI50 [58] was 13.8 µM, the TGI [58] was 30 µM and the GI50 [57] was 8.38 µM. The TGI [57] was 21.1 µM.
